# Tested on: anti-DNP antibody
# Assay: FACS bead model: DNP beads versus acetyl beads with anti-DNP antibody in sera
# Type: binding
# Settings: FIG. 40; 1,000 ug/mL sera concentration
# Description: The Mean fluorescence intensity (MFI) separation was greatest at the higher dilution of 1,000 ug/mL sera.
structure (smiles),measurement,value
O=[N+]([O-])c1ccc(NCCO)c([N+](=O)[O-])c1 [ethanolamine-DNP],competition with binding of DNP (on a plate) to anti-DNP antibody,direct competition

# Reference: patent publication US9804168B2, “Biomarker discovery in complex biological fluid using bead or particle based libraries and diagnostic kits and therapeutics” (OPKO Pharmaceuticals, LLC, priority 2011, dated 2017)
